Measured values as given in patent publication US20090263492A1, “Diagnostic Methods and Genetic Markers for Alzheimer Disease” (priority 2006, published 2009).
Entries after “also recorded” stand apart in the source; their conditions may differ.

Tests used:
[1] = test system: Toll-like receptor (TLR) RNA's (TLR1-10); assay: qPCR of TLR transcription in PBMC's from AD patients cultured with Aβ and test agent; format: cell-based, human; conditions: for up-regulation of TLR1-10 RNA: PBMCs from one AD patient (patient D, FIG. 1), Aβ plus agent overnight
Experimental: 10 million PBMC's each of four AD patients (A, B, C, D) were treated overnight with no addition, Aβ (A, B, C, D; black bars) or with Aβ and bisdemethoxycurcumin (D, striped bar). Control subjects's (M, N, O) PBMC's were treated with no addition or Aβ (open bars). RNA was extracted and tested by qPCR, and the TLR ratio was determined as described in the Methods. The significance of differences between patients and controls (by Mann-Whitney test) are: TLR1 0.05; TLR2 0.05; TLR3 0.05; TLR4 0.08; TLR5 0.05; TLR6 0.077; TLR7 0.08; TLR8 0.05; TLR9 0.08; TLR10 0.05. The graphs show changes in receptors on 2-fold (log 2) scale.
(§1) RNA Isolation and qPCR. RNA was isolated as above from PBMC's (10 million) of each subject, which were cultured overnight with or without Aβ (2 μg/ml); and cDNA was synthesized using the iSCRIPT cDNA Synthesis Kit. The expression levels of the genes of interest were tested by qPCR on a real-time PCR detector and normalized to the levels of the housekeeping gene 36B4 with the following primers: […]
SYBR Green reactions were carried out with the IQ SYBR Green mix. Reactions were run on a Continuous Fluorescence detector and analyzed. The relative quantities of the gene tested per sample were calculated against 36B4 using the ΔΔC(T) formula as previously described. The results are expressed as log [MGAT (or TLR) RNA (with Aβ)/MGAT (or TLR) RNA (without Aβ)] for each specimen. For evaluation of curcumins or curcumin analogs the above assay was used. […] The expression levels of Mgat3 or TLR transcription was quantified and normalized to the levels of housekeeping genes and compared to cells treated with curcumin or analogs with or without Aβ vs. untreated cells. The amount of Mgat3 (or TLR) RNA with Aβ and test agent/Mgat3 (or TLR) RNA withal alone)] for each cell preparation in the presence of test agent was determined. […]
Curcumins. […] The expression levels of Mgat3 or TLR transcription was quantified and normalized to the levels of housekeeping genes and compared to cells treated with curcumin or analogs without Aβ. […]

[2] = test system: macrophages of AD patients; assay: Phagocytosis of FITC-amyloid-beta (1-42) by macrophages of AD patients; format: cell-based, human; conditions: for effect on Aβ phagocytosis/uptake by AD macrophages: in vitro treatment during Aβ phagocytosis, fluorescence/confocal microscopy
Excerpt: (§2) Peripheral blood mononuclear cells (PBMC's) and macrophages. AD patients were recruited at the time of enrollment in a double-blind study of curcumin Complex 3 in progress at UCLA. The diagnostic criteria for AD satisfied the National Institute of Neurological and Communicative Disorders and the AD and Related Disorders Association criteria for probable Alzheimer's disease. Normal age-matched control subjects were recruited. PBMC's were isolated by the Ficoll Hypaque gradient technique from venous blood. To prepare macrophage slide cultures, 50,000 PBMC's were cultured in each well of an 8-chamber polystyrene vessel glass slide in Iscove's medium with 10% autologous serum until differentiated into adherent macrophages (7-14 days).
Phagocytosis assay and confocal microscopy. Macrophages were exposed to FITC-amyloid-beta (1-42) (2 μg/ml) overnight, fixed with 4% paraformaldehyde, permeabilized with 0.1% Triton X-100, blocked with 1% BSA in PBS and stained with Rab 5 or EEA1 antibodies by indirect immunofluorescence; lysosomes were stained intravitally by the Lyso-Tracker probe; macrophages were stained using anti-CD68; neurons were stained using anti-NeuN. The preparations were examined using fluorescence and confocal microscopy.
Ability of monocytes to clear Aβ in the brain. Co-culture of freshly isolated monocytes with sections of AD frontal lobe to test the ability of monocytes to clear Aβ in the brain was done. One third of control monocytes became saturated with Aβ in 2 days and 100% in 4 days. […] Apoptosis of macrophages treated with Aβ was done with the SR-VAD-FMK polycaspase assay. Differentiated macrophages were treated with curcuminoids or analogs in the medium overnight and were then exposed to FITC-Aβ (1-42) to 2.5 μg/ml, incubated for 24 or 48 h and examined by fluorescence or confocal microscopy.
Curcuminoids reverse defective phagocytosis of amyloid-beta by macrophages of individual AD patients. […] Macrophages were visualized using anti-CD68 or fluorescent phalloidin with a fluorescence microscope.

[3] = test system: TLR2, TLR3 and TLR4 on monocytes; assay: Flow cytometry of TLR expression on monocytes of PBMCs from an AD patient; format: cell-based, human
Mgat3 transcription = assay: qPCR of Mgat3 transcription in PBMC's from AD patients cultured with Aβ and test agent; format: cell-based, human; conditions: for fold induction at 0.1 µM: Homo sapiens, curcumins 0.1 uM, PBMC's from AD patients cultured overnight with Aβ, 2 hours incubation, qPCR, read-out: Relative Activity: relative ratio of Mgat3 transcription in AD/Mgat3 transcription in control cells
Experimental: as §1
SYBR Green reactions were carried out with the IQ SYBR Green mix. Reactions were run on a Continuous Fluorescence detector and analyzed. The relative quantities of the gene tested per sample were calculated against 36B4 using the ΔΔC(T) formula as previously described. The results are expressed as log [MGAT (or TLR) RNA (with Aβ)/MGAT (or TLR) RNA (without Aβ)] for each specimen. For evaluation of curcumins or curcumin analogs the above assay was used. Curcumins (0.1 uM) were added to PBMC's from AD patients cultured overnight with ±Aβ as above. After 2 hours of incubation with the curcumin or analog, RNA was isolated and cDNA was synthesized as above. The expression levels of Mgat3 or TLR transcription was quantified and normalized to the levels of housekeeping genes and compared to cells treated with curcumin or analogs with or without Aβ vs. untreated cells. The amount of Mgat3 (or TLR) RNA with Aβ and test agent/Mgat3 (or TLR) RNA withal alone)] for each cell preparation in the presence of test agent was determined. The ratio was used to determine the potency of the agent tested. Potent compounds had elevated ratios (>1.5) and were used to rank the relative activity of each test agent (Table 2).
Curcumins. […] Crude natural product derived materials (i.e., curcuminoids) enhance phagocytosis of Aβ by macrophages from AD patients in approximately 50% of the cases examined. […] The material was purified to near homogeneity and identified by LCMS as bisdesmethoxycurcumin on the basis of its molecular ion and fragmentation pattern. To verify the biological activity of this minor constituent, bisdesmethoxycurcumin was chemically synthesized and tested in the phagocytosis and transcription assays described above (see Example 4). Compared with curcumin, both the bisdesmethoxycurcumin material isolated by chromatography and the chemically synthesized bisdesmethoxycurcumin material optimally stimulated phagocytosis at 0.1 μM. To determine whether functional improvement would be accompanied by biochemical changes, we tested transcriptional up-regulation of MGA T3 and TLR's in PBMC's from AD patients and controls in the presence of Aβ with bisdesmethoxycurcumin (0.1 μM) in comparison to Aβ alone. […] Thus, curcumins (0.1 uM) were added to PBMC's from AD patients cultured overnight with Aβ as above. After 2 hours of incubation, RNA was isolated and cDNA was synthesized. The expression levels of Mgat3 or TLR transcription was quantified and normalized to the levels of housekeeping genes and compared to cells treated with curcumin or analogs without Aβ. The amount of Mgat3 (or TLR) RNA with test agent and Aβ)/Mgat3 (or TLR) RNA (with Aβ alone)] for each cell preparation in the presence of test agent was determined. The ratio was used to determine the potency of the agent tested. Potent compounds had elevated ratios (>1.5) and were used to rank the relative activity (Table 2).
Mgat3 and TLR transcription in cells from AD and control patients. We tested by qPCR Mgat3 and/0or TLR transcription in cells from AD patients and compared the results to those obtained from age-matched controls (Table 2). As discussed above, activation or up-regulation of macrophage Mgat3 or TLR's results in many functional outcomes, including the enhancement of […] and removal of Aβ, increased apoptosis, secretion of inflammatory cytokines, and other anti-AD antimicrobial activities. […] Thus, the ratio of Mgat3 or TLR transcription upon Aβ stimulation of AD versus control PBMCs provides an indicator and sensitive method to test the in vitro efficacy of drug candidates. […]

control macrophages = assay: Phagocytosis / uptake of FITC-Aβ by control macrophages; format: cell-based, human; conditions: Example 5; control or AD macrophages not specified
Excerpt: as §2
Phagocytosis assay and confocal microscopy. […] The preparations were examined using fluorescence and confocal microscopy. […]
Curcuminoids reverse defective phagocytosis of amyloid-beta by macrophages of individual AD patients. […] Macrophages were visualized using anti-CD68 or fluorescent phalloidin with a fluorescence microscope. […]

[4] = 0.1 μM, PBMC's from AD patients

Molecule: O=C(C=Cc1ccc(O)cc1)C=C(O)C=Cc1ccc(O)cc1 [Compound 5a, 5-Hydroxy-1,7-bis-(4-hydroxy-phenyl)-hepta-1,4,6-trien-3-one]
- transcription of TLRs with Aβ and agent in comparison to Aβ alone [1, 4]: up-regulated in all four patients examined
- up-regulation of TLR1-10 RNA ([1]; listed as Bisdemethoxycurcumin): all 10 TLRs were up-regulated
- up-regulation of TLR1-10 RNA ([1]; listed as bisdemethoxycurcumin): up-regulation
- effect on Aβ phagocytosis/uptake by AD macrophages ([2]; listed as bisdemethoxycurcumin): enhanced the phagocytosis of Aβ by macrophages of AD patients; also recorded: considerable activity
- concentration that optimally stimulated phagocytosis ([2]; isolated and chemically synthesized material, compared with curcumin): 0.1 µM
- expression of TLR2, TLR3 and TLR4 on monocytes [3]: increased expression
- transcription of MGAT3 with Aβ and agent in comparison to Aβ alone (Mgat3 transcription; [4]): up-regulated in all four patients examined
- fold induction at 0.1 µM (Mgat3 transcription): 1.5 to 2
- relative Mgat3 ratios (Mgat3 transcription; repeat assays): 3-5 fold

Molecule: COc1ccc(C=CC(=O)C=C(O)C=Cc2ccc(OC)c(O)c2)cc1O [Compound 5g, 5-Hydroxy-1,7-bis-(3-hydroxy-4-methoxy-phenyl)-hepta-1,4,6-trien-3-one]
- melting point: 182.8 °C
- fold induction at 0.1 µM (Mgat3 transcription): 1 to 1.5

Molecule: Fucoidan
- block of uptake of Aβ (control macrophages): did not block uptake of Aβ

Molecule: IGF-1: the hormone insulin-like growth factor (IGF-I)
- effect on Aβ phagocytosis/uptake by AD macrophages [2]: improves Aβ phagocytosis
